Results as given in US20220110862A1, “TREATMENT OF COGNITIVE DYSFUNCTION WITH PYRROLOPYRIDINE-ANILINE COMPOUNDS” (NFlection Therapeutics, Inc., priority 2020, published 2022).
Where “and” joins values, the source holds several entries; their conditions need not be identical. Equal values may be shown once. Read-outs that look alike come from different tables or passages of the source.

Columns and labels:
[1] = Brain concentration and brain:plasma ratio of Compound 1.003 after single intranasal administration of nasal formulation Ex. A (LC-MS/MS); type: in vivo, Mouse; details: female athymic mice, single intranasal 50 μL Ex. A; for Brain concentration, animal replicates: individual animals; for Brain concentration, Mean: mean of 3
Method: (§1) This study was conducted to investigate the potential for Compound 1.003 to penetrate into the brain following a single intranasal administration of a nasal formulation including the compound. Compound 1.003 was formulated at a dose strength of 2.3% according to Ex. A of Example 1.
(§2) A single group of female athymic mice each received a single intranasal administration of Compound 1.003. At intervals post dose the animals were sacrificed and samples of blood and brain were collected. The concentration of Compound 1.003 was determined in plasma and brain; and samples of brain were used for determination of the expression of phosphor-ERK (p-ERK).
(§3) The study was conducted using the following animals: • Species: Mouse; • Strain: NCr mu/mu athymic nude mice from Charles River; • Sex: Female; • Age: 7 weeks old at the time of dosing; • Body weight: 20.1 to 27.0 g; and • Number used: 12
(§4) Overview: A single group of 12 athymic female mice each received a single intranasal administration of Compound 1.003 (Ex. A nasal formulation of Example 1). Three animals were sacrificed at each a 4 times post dose and sample of plasma and brain collected at necropsy. The concentration of Compound 1.003 was determined in plasma and brain by liquid chromatography with tandem mass spectrometry (LC-MS/MS) and the expression of p-ERK was determined in brain samples.
(§5) Dosing: Each animal received a single administration (50 μL) of the nasal formulation Ex. A including Compound 1.003. The dose was administration intranasally to each animal.
(§6) (dry ice). The samples were send out for the LC-MS/MS analysis of plasma concentration of Compound 1.003. • Brain Collection: Brain (divide into 2 parts at the mid sagittal plane); Part 1: preservation—snap frozen, ship at −80° C. (dry ice) for the LC-MS/MS analysis of Compound 1.003; and Part 2: preservation—fixed in 10% neutral buffered formalin for at least 24 h. Samples were then transferred after 24 h into 1.5 mL Eppendorf tubes containing 70% EtOH and stored ambient until shipment for the expression of p-ERK.
(§7) Bioanalytical Methods: Bioanalysis of […] plasma and brain samples for Compound 1.003 was performed using the LC-MS/MS analysis. For this study, the analysis was conducted using existing fit for purpose bioanalytical methods. Plasma samples were analyzed undiluted against a plasma standard curve (10 standards between 0.5 to 5000 ng/mL). Prior to analysis for concentration of compound 1.003, the brain samples were weighed, mixed with 5 volumes of water and then homogenised. Homogenised samples were then diluted 2× into plasma and then analysed against the plasma standard curve ([…]). All results were then corrected for the dilution factor.

[2] = Plasma concentration of Compound 1.003 after single intranasal administration of nasal formulation Ex. A (LC-MS/MS); type: in vivo, Mouse; details: female athymic mice
Method: as §1, §2, §3, §4, §5, §6, §7

## Cn1c(Nc2ccc(I)cc2F)c(C(=O)NOCCO)c2cccnc21 [Compound 1.003, 2-((2-fluoro-4-iodophenyl)amino)-N-(2-hydroxyethoxy)-1-methyl-1H-pyrrolo[2,3-b]pyridine-3-carboxamide]
[1]; 0.250 h post dose, animals 1-3
  Brain:plasma concentration ratio, individual animal: 0.30 and 0.49
[1]; 0.250 h post dose
  Brain concentration, animal replicates: 405 and 375 and 280
  Brain concentration, Mean: 353 ng/g
[1]; 0.500 h post dose, animals 4-6
  Brain:plasma concentration ratio, individual animal: 0.51 and 0.47
[1]; 0.500 h post dose
  Brain concentration, animal replicates: 297 and 513 and 383
  Brain concentration, Mean: 398 ng/g
[1]; 1.00 h post dose, animals 7-9
  Brain:plasma concentration ratio, individual animal: 1.45 and 2.49 and 1.15
[1]; 1.00 h post dose
  Brain concentration, animal replicates: 188 and 205 and 144
  Brain concentration, Mean: 179 ng/g
[1]; 4.00 h post dose
  Brain:plasma concentration ratio, Mean: 1.72
  Brain concentration, animal replicates: 166 and 46.5 and 51.9
  Brain concentration, Mean: 88.1 ng/g
[1]; 4.00 h post dose, animals 10-12
  Brain:plasma concentration ratio, individual animal: 3.65 and 0.89 and 0.63
[1]; female, NCr mu/mu athymic nude, mouse, brain, inhaled or intranasal, 50 μL, 0.250 h (15 min) post dose, read-out: Brain:plasma concentration ratio, Mean
  Kp at 0.25 h: 0.38
[1]; female, NCr mu/mu athymic nude, mouse, brain, inhaled or intranasal, 50 μL, 0.250 h post dose, animals 1-3, read-out: Brain:plasma concentration ratio, individual animal
  Kp at 0.25 h: 0.34
[1]; female, NCr mu/mu athymic nude, mouse, brain, inhaled or intranasal, 50 μL, 0.500 h post dose, animals 4-6, read-out: Brain:plasma concentration ratio, individual animal
  Kp at 0.5 h: 0.39
[1]; female, NCr mu/mu athymic nude, mouse, brain, inhaled or intranasal, 50 μL, 0.500 h post dose, read-out: Brain:plasma concentration ratio, Mean
  Kp at 0.5 h: 0.46
[1]; female, NCr mu/mu athymic nude, mouse, brain, inhaled or intranasal, 50 μL, 1.00 h post dose
  Kp at 1 h: 1.7
[1]; female, NCr mu/mu athymic nude, mouse, brain, inhaled or intranasal, 50 μL, 4.00 h post dose
  Kp at 4 h: 1.7
[2]; NCr mu/mu athymic nude, mouse, plasma, inhaled or intranasal, single intranasal 50 μL Ex. A, read-out: maximum plasma concentration (Cmax)
  Cmax: 996 ng/mL
[2]; single intranasal 50 μL Ex. A, 0.5 h post dose, individual animals
  Plasma concentration, animal replicates: 1000 ng/mL and 823 ng/mL
[2]; single intranasal 50 μL Ex. A, 1.0 h post dose, individual animals
  Plasma concentration, animal replicates: 82.4 ng/mL and 125 ng/mL
[2]; single intranasal 50 μL Ex. A, 4.0 h post dose, individual animals
  Plasma concentration, animal replicates: 52.4 ng/mL and 82.4 ng/mL
[2]; single intranasal 50 μL of nasal formulation Ex. A (2.3%), 0.25 h post dose, individual animals
  Plasma concentration, animal replicates: 1190 ng/mL and 1230 ng/mL and 568 ng/mL
[2]; female, NCr mu/mu athymic nude, mouse, plasma, other: intranasal, 50 μL, single intranasal 50 μL Ex. A, 0.5 h post dose, individual animals, read-out: Plasma concentration, animal replicates
  concentration at 0.5 h: 757 ng/mL
[2]; female, NCr mu/mu athymic nude, mouse, plasma, other: intranasal, 50 μL, single intranasal 50 μL Ex. A, 0.5 h post dose, mean of 3, read-out: Plasma concentration, Mean
  concentration at 0.5 h: 860 ng/mL
[2]; female, NCr mu/mu athymic nude, mouse, plasma, other: intranasal, 50 μL, single intranasal 50 μL Ex. A, 1.0 h post dose, individual animals, read-out: Plasma concentration, animal replicates
  concentration at 1 h: 130 ng/mL
[2]; female, NCr mu/mu athymic nude, mouse, plasma, other: intranasal, 50 μL, single intranasal 50 μL Ex. A, 1.0 h post dose, mean of 3, read-out: Plasma concentration, Mean
  concentration at 1 h: 112 ng/mL
[2]; female, NCr mu/mu athymic nude, mouse, plasma, other: intranasal, 50 μL, single intranasal 50 μL Ex. A, 4.0 h post dose, individual animals, read-out: Plasma concentration, animal replicates
  concentration at 4 h: 45.5 ng/mL
[2]; female, NCr mu/mu athymic nude, mouse, plasma, other: intranasal, 50 μL, single intranasal 50 μL Ex. A, 4.0 h post dose, mean of 3, read-out: Plasma concentration, Mean
  concentration at 4 h: 60.1 ng/mL
[2]; female, NCr mu/mu athymic nude, mouse, plasma, other: intranasal, 50 μL, single intranasal 50 μL of nasal formulation Ex. A (2.3%), 0.25 h post dose, mean of 3
  concentration at 0.25 h: 996 ng/mL
